For orientation: IC50 means the concentration at which inhibition is half-maximal.

This assay has as its target DNA gyrase A/A/B/B tetramer (Escherichia coli (strain K12), UniProt P0AES4+P0AES6). Kind of assay: Inhibition of Escherichia coli DNA gyrase assessed as supercoiled plasmid DNA formation after 30 mins by electrophoretic analysis.

For the molecule `CC[C@H](C)C(=O)c1c(O)cc(O)cc1OC/C=C(\C)CCC=C(C)C` [Olympicin A], the 50% inhibitory concentration (IC50) was 500 µM. Consider `C=CCOc1ccccc1/C=C/C(=O)c1ccc(O)cc1O`, for which the IC50 was determined as 500 µM.

As for `CC1(C)C2CC=C(/C=C/C(=O)c3ccc(O)cc3O)C1C2` (stereo not drawn), the IC50 turned out to be 250 µM.

(Values after BindingDB's records for doi:10.1021/jm500853v (University of Hawaii At Hilo, 2014).)
